Laboratory results as given in US20210077382A1, “COMPOSITIONS, DEVICES, AND METHODS FOR THE TREATMENT OF OPIOID-RECEPTOR-MEDIATED CONDITIONS” (Opiant Phamaceuticals, Inc., priority 2016, published 2021).

Experiment: Clinical pharmacokinetic crossover study of IN, IM and oral naltrexone; plasma naltrexone and 6β-naltrexol by LC-MS/MS
Text: Study Goals. […] Secondary endpoints included adverse events (AEs), vital signs (heart rate, sitting blood pressure, and respiration rate), electrocardiogram (ECG), clinical laboratory changes and nasal irritation using the nasal irritation scale.
Study design. […] This was an in-patient open-label, crossover study involving approximately 14 healthy volunteers. […] Subjects stayed in the in-patient facility for 13 days to complete the entire study. Subjects were called 3 to 5 days after discharge to inquire concerning AEs and concomitant medications since discharge. Informed consent was obtained from all subjects, and all were screened for eligibility to participate in the study, including medical history, physical examination, clinical chemistry, coagulation markers, hematology, infectious disease serology, urinalysis, urine drug and alcohol toxicology screen, vital signs and ECG.
On days of study drug administration, a 12-lead ECG was performed approximately 1 hour prior to dosing and at approximately 1 and 4 hours post-dose. Vital signs were measured pre-dose and about 1 and 4 hours post-dose.
Study Drugs and Dosing. […] The IN (40 mg/mL) formulations were made by the staff pharmacist at Vince & Associates; the vehicle for the IN formulations was sterile water for injection. The IM formulation (2 mg/mL) was made by the staff pharmacist at Vince & Associates; the vehicle was sterile saline for injection.
Subjects stayed in the in-patient facility for 13 days to complete the entire study and were discharged 2 days after the fourth dose.
PK Assessments. […] Plasma was separated from whole blood and stored frozen at […] until assayed.
Analysis. […] Dose-adjusted values for AUCs and Cmax were calculated. The relative extent of IN and PO absorption (IN and PO versus IM) will be estimated from the dose-corrected AUCs.

[1] = naltrexone 2 mg IM, N = 10, listed as 6β-Naltrexol
[2] = naltrexone 4 mg IN plus […] Intravail, N = 12

## Oc1ccc2c3c1O[C@H]1[C@H](O)CC[C@@]4(O)[C@@H](C2)N(CC2CC2)CC[C@]314 [6β-naltrexol]
IN, IM or PO administration, except naltrexone Cmax after 4 mg IN
  Difference between the sexes for the PK parameters: no clinically meaningful difference
After the IN administration of naltrexone
  Mean Cmax of 6β-naltrexol: approximately 3 ng/mL
After the oral dose
  Ratio of AUC0-inf for 6β-naltrexol compared to that of naltrexone: 25
Naltrexone 2 mg IM, N = 10
  AUC0-inf of 6β-naltrexol, mean (CV %): 27.1 ng·h/mL
  AUC0-inf/Dose of 6β-naltrexol, mean (CV %): 15.0 (19.0) h · ng/mL/mg
  AUC0-t of 6β-naltrexol, mean (CV %): 25.1 (18.3) h · ng/mL
  AUC0-t/Dose of 6β-naltrexol, mean (CV %): 13.9 (18.3) h · ng/mL/mg
  AUCextrap of 6β-naltrexol, mean (CV %): 7.02 (29.4) %
  Cmax of 6β-naltrexol, mean (CV %): 1.5 ng/mL
  Cmax/Dose of 6β-naltrexol, mean (CV %): 0.838 ng/mL/mg
  Tmax of 6β-naltrexol, median (minimum, maximum): 3.00 h
  t1/2 of 6β-naltrexol, mean (CV %): 12.4 (13.2) h
  λz of 6β-naltrexol, mean (CV %): 0.0570 (14.8) 1/h
[1]
  Cmax of 6β-naltrexol, mean (CV %): 1.52 (26.8) ng/mL
  Cmax/Dose of 6β-naltrexol, mean (CV %): 0.838 (26.8) ng/mL/mg
Naltrexone 2 mg IN, hour 0
  Mean concentration of 6β-naltrexol: 0.0661 ng/mL
Naltrexone 2 mg IN, hour 0.042
  Mean concentration of 6β-naltrexol: 0.0627 ng/mL
Naltrexone 2 mg IN, hour 0.083
  Mean concentration of 6β-naltrexol: 0.12 ng/mL
Naltrexone 2 mg IN, hour 0.17
  Mean concentration of 6β-naltrexol: 0.283 ng/mL
Naltrexone 2 mg IN, hour 0.25
  Mean concentration of 6β-naltrexol: 0.454 ng/mL
Naltrexone 2 mg IN, hour 0.33
  Mean concentration of 6β-naltrexol: 0.677 ng/mL
Naltrexone 2 mg IN, hour 0.5
  Mean concentration of 6β-naltrexol: 0.852 ng/mL
Naltrexone 2 mg IN, hour 0.75
  Mean concentration of 6β-naltrexol: 1.08 ng/mL
Naltrexone 2 mg IN, hour 1
  Mean concentration of 6β-naltrexol: 1.1 ng/mL
Naltrexone 2 mg IN, hour 2
  Mean concentration of 6β-naltrexol: 1.39 ng/mL
Naltrexone 2 mg IN, hour 3
  Mean concentration of 6β-naltrexol: 1.48 ng/mL
Naltrexone 2 mg IN, hour 4
  Mean concentration of 6β-naltrexol: 1.46 ng/mL
Naltrexone 2 mg IN, hour 6
  Mean concentration of 6β-naltrexol: 1.3 ng/mL
Naltrexone 2 mg IN, hour 8
  Mean concentration of 6β-naltrexol: 1.08 ng/mL
Naltrexone 2 mg IN, hour 12
  Mean concentration of 6β-naltrexol: 0.81 ng/mL
Naltrexone 2 mg IN, hour 16
  Mean concentration of 6β-naltrexol: 0.595 ng/mL
Naltrexone 2 mg IN, hour 24
  Mean concentration of 6β-naltrexol: 0.365 ng/mL
Naltrexone 2 mg IN, hour 30
  Mean concentration of 6β-naltrexol: 0.255 ng/mL
Naltrexone 2 mg IN, hour 36
  Mean concentration of 6β-naltrexol: 0.18 ng/mL
Naltrexone 2 mg IN, hour 48
  Mean concentration of 6β-naltrexol: 0.106 ng/mL
Naltrexone 4 mg IN + […] Intravail, hour 0
  Mean concentration of 6β-naltrexol: 0.0682 ng/mL
Naltrexone 4 mg IN + […] Intravail, hour 0.042
  Mean concentration of 6β-naltrexol: 0.082 ng/mL
Naltrexone 4 mg IN + […] Intravail, hour 0.083
  Mean concentration of 6β-naltrexol: 0.238 ng/mL
Naltrexone 4 mg IN + […] Intravail, hour 0.17
  Mean concentration of 6β-naltrexol: 0.994 ng/mL
Naltrexone 4 mg IN + […] Intravail, hour 0.25
  Mean concentration of 6β-naltrexol: 1.86 ng/mL
Naltrexone 4 mg IN + […] Intravail, hour 0.33
  Mean concentration of 6β-naltrexol: 2.55 ng/mL
Naltrexone 4 mg IN + […] Intravail, hour 0.5
  Mean concentration of 6β-naltrexol: 2.84 ng/mL
Naltrexone 4 mg IN + […] Intravail, hour 0.75
  Mean concentration of 6β-naltrexol: 2.93 ng/mL
Naltrexone 4 mg IN + […] Intravail, hour 1
  Mean concentration of 6β-naltrexol: 2.73 ng/mL
Naltrexone 4 mg IN + […] Intravail, hour 2
  Mean concentration of 6β-naltrexol: 2.9 ng/mL
Naltrexone 4 mg IN + […] Intravail, hour 3
  Mean concentration of 6β-naltrexol: 2.61 ng/mL
Naltrexone 4 mg IN + […] Intravail, hour 4
  Mean concentration of 6β-naltrexol: 2.45 ng/mL
Naltrexone 4 mg IN + […] Intravail, hour 6
  Mean concentration of 6β-naltrexol: 2.03 ng/mL
Naltrexone 4 mg IN + […] Intravail, hour 8
  Mean concentration of 6β-naltrexol: 1.67 ng/mL
Naltrexone 4 mg IN + […] Intravail, hour 12
  Mean concentration of 6β-naltrexol: 1.25 ng/mL
Naltrexone 4 mg IN + […] Intravail, hour 16
  Mean concentration of 6β-naltrexol: 0.923 ng/mL
Naltrexone 4 mg IN + […] Intravail, hour 24
  Mean concentration of 6β-naltrexol: 0.618 ng/mL
Naltrexone 4 mg IN + […] Intravail, hour 30
  Mean concentration of 6β-naltrexol: 0.457 ng/mL
Naltrexone 4 mg IN + […] Intravail, hour 36
  Mean concentration of 6β-naltrexol: 0.312 ng/mL
Naltrexone 4 mg IN + […] Intravail, hour 48
  Mean concentration of 6β-naltrexol: 0.175 ng/mL
[2]
  AUC0-inf of 6β-naltrexol, mean (CV %): 46.3 (18.3) h · ng/mL
  AUC0-inf/Dose of 6β-naltrexol, mean (CV %): 12.8 (18.3) h · ng/mL/mg
  AUC0-t of 6β-naltrexol, mean (CV %): 43.0 (17.4) h · ng/mL
  AUC0-t/Dose of 6β-naltrexol, mean (CV %): 11.9 (17.4) h · ng/mL/mg
  AUCextrap of 6β-naltrexol, mean (CV %): 7.02 (37.3) %
  Cmax of 6β-naltrexol, mean (CV %): 3.29 (23.7) ng/mL
  Cmax/Dose of 6β-naltrexol, mean (CV %): 0.908 (23.7) ng/mL/mg
  Tmax of 6β-naltrexol, median (minimum, maximum): 0.75 h
  t1/2 of 6β-naltrexol, mean (CV %): 12.8 (14.6) h
